Assay results reported in PMC7911516, “Investigation of the Factors Responsible for the Poor Oral Bioavailability of Acacetin in Rats: Physicochemical and Biopharmaceutical Aspects” (Pharmaceutics, 2021).
Read-outs that look alike come from different tables or passages of the source.

Tests used:
[1] = set-up: method as in doi:10.5958/0974-360X.2019.00624.3; settings: oral administration at 10 mg/kg; cited from earlier work
[2] = Michaelis–Menten metabolic kinetics in RLM with NADPH and UDPGA; type: in vitro ADME, rat; settings: NADPH and UDPGA/alamethicin
Protocol: (§1) To investigate hepatic phase I enzymes- and UGT-dependent metabolism of acacetin, the disappearance rate of acacetin at concentrations of 1–200 µM in RLM was measured in the presence of both NADPH and UDPGA. The substrate (acacetin) concentration ((S); µM) versus the initial metabolic rate (V; nmol/min/mg protein) profiles were interpreted based on Michaelis–Menten kinetics, and relevant parameters were estimated via nonlinear regression analysis (GraphPad Prism ver. 5.01; GraphPad Software, San Diego, CA, USA) using the following Michaelis–Menten equation: V = Vmax× [S]/Km× [S] where Km and Vmax are the Michaelis–Menten constant and maximal metabolic rate, respectively. The unbound intrinsic metabolic clearance (CLint) was calculated as Vmax/(Km × fuMIC). Furthermore, the disappearance of acacetin (20 μM) in the absence or presence of specific CYP isoform-selective inhibitors in RLM was determined to study the hepatic CYP-mediated metabolism of acacetin. Microsomal incubation mixtures (total volume of 200 μL) were prepared as follows: RLM (0.5 mg/mL microsomal protein), 1 mM NADPH, 10 mM MgCl2, 50 mM potassium phosphate buffer, acacetin, with or without CYP isoform-selective inhibitors (10 μM NF for rat CYP1A, 10-μM SPZ for rat CYP2C, 10-μM QND for rat CYP2D, and 10-μM KCZ for rat CYP3A). At 0 and 5 min after initiating the metabolic reaction, a 100-μL aliquot of the incubation mixture was taken, transferred into a clean 1.5 mL microcentrifuge tube containing 100 μL cold acetonitrile to terminate the metabolic reaction, and finally treated in the same manner as described for the tissue S9 fraction samples.

[3] = Disappearance in rat plasma and tissue S9 fractions; type: in vitro ADME; settings: 10 μM, 5 min, S9 0.5 mg/mL, NADPH or UDPGA/alamethicin
Protocol: The rat gut, spleen, kidney, liver, heart, brain, and lung were excised after cervical dislocation, rinsed with cold saline, blotted dry with tissue paper, and weighed. Each tissue sample was homogenized using a homogenizer (Ultra-Turrax T10 basi; IKA-Werke GmbH & Co. KG, Staufen, Germany) in cold 0.25 M sucrose solution. The homogenate was centrifuged at 9000× g for 30 min, and the supernatant fraction was stored at −80 °C until further use. The reaction mixture consisted of substrate, plasma, or tissue S9 fractions (protein concentration: 0.5 mg/mL) and NADPH (1 mM) or UDPGA (2 mM) in Tris buffer (100 mM; pH 7.4). After preincubation at 37 °C for 5 min, acacetin (final concentration: 10 μM) was added to initiate the enzyme reaction. After 5 min of incubation with shaking at 37 °C, the reaction was terminated by mixing the reaction mixture with acetonitrile containing IS (volume four times that of the reaction mixture). After vortex-mixing and centrifugation at 16,000× g for 10 min, 100 μL of the supernatant was obtained and stored at −80 °C until further LC-MS/MS assay.

[4] = set-up: method as in PMID 25456423; settings: oral, 1.4–1.676 mg/kg in rats; cited from earlier work
[5] = Distribution coefficients in octanol–water system; type: physicochemical; settings: 25 °C
Protocol: Simulated gastric fluid (SGF) consisted of 0.2% (w/v) sodium chloride, 0.32% (w/v) pepsin, and 0.7% (v/v) HCl (final pH = 1.2). Simulated intestinal fluid (SIF) was prepared by dissolving 3 mM sodium taurocholate and 0.1% (w/v) pancreatin in phosphate buffer (final pH = 7.0). The solubility of acacetin was measured by adding excessive amounts of acacetin into glass vials containing 1.5 mL of water, pH 7.4 phosphate buffer, SGF, and SIF. The mixtures were allowed to reach equilibrium in a shaking incubator (FINEPCR, Gyeonggi-do, South Korea) at 500 rpm at 37 °C for 48 h. The samples were centrifuged at 16,000× g for 5 min, and the supernatant was passed through a 0.20-μm syringe filter to remove excess acacetin. Further, the concentration of acacetin in the filtrate was determined using the LC-MS/MS method. The distribution coefficients of acacetin in water (log P) and pH 7.4 phosphate buffer (log D7.4) were determined using an octanol–water system at 25 ± 0.5 °C. […] Finally, the acacetin concentrations in the octanol and water layers were determined using the LC-MS/MS method. The membrane permeability of acacetin and reference compounds (verapamil as a reference for high permeability and ranitidine as a reference for low permeability) was assessed by parallel artificial membrane permeability assay (PAMPA). […] The permeability was calculated using pION PAMPA Explorer ver. […]

rat CYP3A = test: Disappearance in RLM with CYP isoform-selective inhibitor KCZ; type: in vitro ADME; settings: acacetin 20 μM, 10-μM KCZ, NADPH, 5 min
Protocol: as §1, with “At 0 and 5 min after initiating the metabolic reaction, a 100-μL aliquot of the incubation mixture was taken, transferred into a clean 1.5 mL microcentrifuge tube containing 100 μL cold acetonitrile to terminate the metabolic reaction, and finally treated in the same manner as described for the tissue S9 fraction samples.” left out

[6] = Blood-to-plasma concentration ratio; type: in vitro ADME; settings: Sprague-Dawley, rat, 37 °C, read-out: RB (blood-to-plasma concentration ratio)
Protocol: The fractions of unbound acacetin in plasma (fuP), microsomes (fuMIC), SGF (fuSGF), and SIF(fuSIF) were measured using a rapid equilibrium dialysis device (Thermo Fisher Scientific, Inc., Waltham, MA, USA) as previously described with slight modifications. Briefly, 0.2 mL of the matrix spiked with acacetin (10 μM) was placed into the “sample” chamber, and 0.4 mL of PBS was placed into the adjacent “buffer” chamber. The fractions of unbound acacetin were calculated as the concentration ratio between the two chambers. The blood-to-plasma concentration ratio (RB) of acacetin was determined as described previously. Briefly, 1-mL blood spiked with acacetin (1 μM) was incubated at 37 °C for 30 min. The blood sample was centrifuged at 2000× g for 5 min to prepare the plasma sample. The concentrations of acacetin in the aforementioned plasma and buffer samples were measured using the LC-MS/MS method.

For COc1ccc(-c2cc(=O)c3c(O)cc(O)cc3o2)cc1 [acacetin, Acacetin], the Cmax [1] is given as 1668 ng/mL, the bioavailability [1] is given as 84% and the Vmax [2] is given as 95.0 ± 5.6 nmol/min/mg protein. For the same compound, the Km ([2]; 1–200 µM) was 187 ± 14 µM, the microsomal CLint ([2]; Sprague-Dawley, rat, liver microsomes (RLM)) was 508 ± 9 µL/min/mg and the “Tissue-dependent metabolizing activity (disappearance rate)” value [3] was “the liver exhibited significantly higher metabolizing activity than all the tested tissues”. For the same compound, the Cmax [4] was 19.02 ng/mL, the logD ([5]; n-octanol/pH 7.4 phosphate buffer, pH 7.4, n-octanol/pH 7.4 phosphate buffer, read-out: Log D7.4) was > 3 and the logP ([5]; octanol/water, n-octanol/water) was > 3. For the same compound, the “Reduction of relative disappearance rate in presence of KCZ” value (rat CYP3A) was 43.7% and the blood plasma ratio at 30 min, 1 μM [6] was ~1.
